Laboratory results from ChEMBL document CHEMBL1201862, “PubChem BioAssay data set” (2004).
Calls of active or inactive are those of the source.

Experiments:
HeLa = assay: HeLa cell cytotoxicity, dose response, cytotoxicity control, 24 h, cherry-picked samples (AID 504726); type: functional, cell-based; conditions: Homo sapiens;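 further: potency for cytotoxicity as loss of luminescence signal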
Streptococcus [1] = assay: Group A Streptococcus viability loss, dose response, counter-screen for streptokinase expression inhibitor project, luminescence, BacTiterGlo (AID 1915); type: functional, organism-based;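 further: potency for reduction of bacterial viability or growth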
[2] = tested on: Streptococcus sp. 'group A'; assay: growth inhibition of control SK(-) GAS strain, dose response, counter-screen for streptokinase expression inhibitor project, luminescence, kanamycin, BacTiterGlo, confirmation (AID 1900); type: functional, organism-based
Streptococcus [3] = assay: Luminescence Microorganism-Based Dose Response Follow up to Identify Compounds Cytotoxic to Streptococcus. [Related pubchem assays: 1677 (Project Summary), 1915, 1914, 1902 (Retest at Dose), 1900 (Counter Screen), 1662 (Primary HTS)]; type: functional, organism-based
Streptokinase A = molecular target: T1, Streptokinase A (Streptococcus pyogenes serotype M1, UniProt P10520); assay: S. pyogenes streptokinase expression inhibitors, potency, dose response, plasminogen activation absorbance, OD405 (AID 1914); type: functional, Streptococcus pyogenes M1 GAS;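 further: secreted streptokinase activity via plasminogen activation per viability signal from cell pellet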
T1 sequence (P10520 whole entry): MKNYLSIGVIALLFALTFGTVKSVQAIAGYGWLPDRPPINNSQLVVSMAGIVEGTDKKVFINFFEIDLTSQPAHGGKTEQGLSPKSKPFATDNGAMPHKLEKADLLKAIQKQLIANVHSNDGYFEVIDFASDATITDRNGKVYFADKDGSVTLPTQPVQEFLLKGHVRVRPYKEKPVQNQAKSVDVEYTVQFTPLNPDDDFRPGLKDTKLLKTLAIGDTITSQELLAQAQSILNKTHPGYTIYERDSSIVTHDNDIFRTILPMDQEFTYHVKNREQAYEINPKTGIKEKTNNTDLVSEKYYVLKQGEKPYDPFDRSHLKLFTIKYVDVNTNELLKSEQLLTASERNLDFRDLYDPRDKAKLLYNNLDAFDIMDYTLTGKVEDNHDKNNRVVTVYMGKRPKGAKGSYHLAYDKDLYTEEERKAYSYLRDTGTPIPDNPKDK

Staphylococcus aureus = assay: Inhibitors of Bacterial Quorum Sensing Structure Activity Relationship (SAR) Analysis: Dose Response Assay. [Related pubchem assays: 700, 527 ]; type: functional, organism-based
[4] = molecular target: Lysosomal acid glucosylceramidase (Homo sapiens, UniProt P04062); assay: Dose response cell-based high throughput screening assay to identify enhancers of beta-glucosidase activity. [Related pubchem assays: 784 ]; type: functional
[5] = molecular target: T2, Tyrosine-protein phosphatase non-receptor type 7 (Homo sapiens, UniProt P35236); assay: Dose Response confirmation of compounds that inhibit HePTP. [Related pubchem assays (depositor defined):AID1059, AID1661, AID2085]; type: functional
T2 sequence (P35236 whole entry): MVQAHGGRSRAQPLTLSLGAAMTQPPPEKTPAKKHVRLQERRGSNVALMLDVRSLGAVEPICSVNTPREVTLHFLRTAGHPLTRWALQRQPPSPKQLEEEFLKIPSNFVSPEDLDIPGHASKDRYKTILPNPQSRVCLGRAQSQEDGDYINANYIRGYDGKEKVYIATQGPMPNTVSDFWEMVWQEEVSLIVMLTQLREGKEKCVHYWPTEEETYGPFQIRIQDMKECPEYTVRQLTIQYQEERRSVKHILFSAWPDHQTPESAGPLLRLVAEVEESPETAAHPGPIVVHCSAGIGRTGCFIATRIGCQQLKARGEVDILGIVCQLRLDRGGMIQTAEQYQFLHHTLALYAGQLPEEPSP

[6] = molecular target: Dual specificity protein phosphatase 3 (Homo sapiens, UniProt P51452); assay: Dose Response Confirmation of compounds that inhibit VHR1 in Fluorescent Assay. [Related pubchem assays (depositor defined):AID1661, AID1878]; type: functional
Bcl-2-like protein 10 = Bcl-2-like protein 10 (Homo sapiens, UniProt Q9HD36); assay: displacers of TR3 peptide from Bcl-B, primary screen, selectivity assay for Bfl-1 inhibitor project, biochemical, fluorescence polarization, FITC-TR3 peptide (AID 748);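 further: fluorescence polarization from a fluorescein-labelled TR3 peptide binding purified Bcl-B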
[7] = molecular target: T3, Alkaline phosphatase, tissue-nonspecific isozyme (Homo sapiens, UniProt P05186)
T3 sequence (P05186 whole entry): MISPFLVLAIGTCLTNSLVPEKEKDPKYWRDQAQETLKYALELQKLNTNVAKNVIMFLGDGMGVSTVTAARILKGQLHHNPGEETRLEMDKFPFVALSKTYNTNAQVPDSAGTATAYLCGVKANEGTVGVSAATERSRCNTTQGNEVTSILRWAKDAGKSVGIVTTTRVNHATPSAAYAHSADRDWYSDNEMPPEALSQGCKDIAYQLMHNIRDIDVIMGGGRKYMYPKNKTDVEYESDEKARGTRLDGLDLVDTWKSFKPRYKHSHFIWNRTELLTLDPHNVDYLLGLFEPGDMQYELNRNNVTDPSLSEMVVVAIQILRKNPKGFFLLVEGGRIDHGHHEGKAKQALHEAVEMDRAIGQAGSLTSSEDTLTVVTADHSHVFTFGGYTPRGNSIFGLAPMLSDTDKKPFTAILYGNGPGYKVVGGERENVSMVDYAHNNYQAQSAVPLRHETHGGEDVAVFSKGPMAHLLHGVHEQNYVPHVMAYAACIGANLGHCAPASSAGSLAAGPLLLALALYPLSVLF

Cytochrome P450 2C9 = Cytochrome P450 2C9 (Homo sapiens, UniProt P11712); conditions: Potency
Chain of Cytochrome P450 2C9 (P11712 whole entry): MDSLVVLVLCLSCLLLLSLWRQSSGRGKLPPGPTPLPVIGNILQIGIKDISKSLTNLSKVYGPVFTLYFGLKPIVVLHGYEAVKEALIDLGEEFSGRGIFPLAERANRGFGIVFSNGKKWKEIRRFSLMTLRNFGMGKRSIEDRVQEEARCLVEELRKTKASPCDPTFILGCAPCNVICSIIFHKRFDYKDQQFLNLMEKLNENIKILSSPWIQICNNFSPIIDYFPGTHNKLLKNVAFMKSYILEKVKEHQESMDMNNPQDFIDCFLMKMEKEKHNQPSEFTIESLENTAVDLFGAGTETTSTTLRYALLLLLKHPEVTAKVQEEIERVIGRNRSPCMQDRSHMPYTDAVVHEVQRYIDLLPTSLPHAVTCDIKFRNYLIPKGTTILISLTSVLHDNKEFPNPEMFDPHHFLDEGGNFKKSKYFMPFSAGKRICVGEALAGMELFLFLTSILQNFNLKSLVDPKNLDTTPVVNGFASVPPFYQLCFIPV

Chain of Lysosomal acid glucosylceramidase (P04062 whole entry): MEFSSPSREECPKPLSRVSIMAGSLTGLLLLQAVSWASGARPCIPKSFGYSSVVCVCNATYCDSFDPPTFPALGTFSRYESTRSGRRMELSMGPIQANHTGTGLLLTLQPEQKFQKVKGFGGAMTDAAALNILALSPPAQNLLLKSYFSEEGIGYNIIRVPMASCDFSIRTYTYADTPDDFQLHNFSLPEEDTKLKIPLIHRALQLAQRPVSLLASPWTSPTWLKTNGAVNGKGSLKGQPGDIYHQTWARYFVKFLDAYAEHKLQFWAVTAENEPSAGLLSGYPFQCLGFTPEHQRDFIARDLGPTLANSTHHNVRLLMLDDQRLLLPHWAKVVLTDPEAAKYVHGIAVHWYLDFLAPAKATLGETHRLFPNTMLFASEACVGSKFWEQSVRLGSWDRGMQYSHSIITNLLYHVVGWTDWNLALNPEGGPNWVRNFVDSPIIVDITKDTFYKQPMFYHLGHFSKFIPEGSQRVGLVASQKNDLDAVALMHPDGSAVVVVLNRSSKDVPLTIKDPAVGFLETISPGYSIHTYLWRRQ
Chain of Dual specificity protein phosphatase 3 (P51452 whole entry): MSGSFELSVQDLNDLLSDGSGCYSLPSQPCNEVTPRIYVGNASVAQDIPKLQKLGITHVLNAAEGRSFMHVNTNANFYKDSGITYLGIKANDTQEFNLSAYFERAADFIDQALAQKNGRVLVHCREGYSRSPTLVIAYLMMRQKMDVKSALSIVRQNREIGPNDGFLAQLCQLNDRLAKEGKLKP
Chain of Bcl-2-like protein 10 (Q9HD36 whole entry): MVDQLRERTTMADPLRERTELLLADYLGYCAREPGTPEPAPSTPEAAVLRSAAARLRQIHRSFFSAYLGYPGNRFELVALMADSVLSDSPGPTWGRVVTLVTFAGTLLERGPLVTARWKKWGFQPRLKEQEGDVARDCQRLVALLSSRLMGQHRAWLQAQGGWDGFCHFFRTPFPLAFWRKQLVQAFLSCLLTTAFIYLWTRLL

Cc1ccc(N(C)C(=O)C2CCCN2S(=O)(=O)c2ccc3c(c2)n(C)c(=O)c(=O)n3C)cc1 (configuration not stated)
AC50 (HeLa): 267 µM (active)

FC(F)(F)c1cccc(-c2cc3ccccc3nc2N2CCCC2)c1
EC50 (Streptococcus [1]): > 150 µM (not active)
EC50 [2]: 6.96 µM (active)
EC50 (Streptococcus [3]): > 500 µM (not active)
EC50 (Streptokinase A): 9.12 µM (active)

O=C(NCC(c1cccnc1)N1CCN(c2ccccc2)CC1)c1cccs1 (configuration not stated)
IC50 (Staphylococcus aureus): 1.05 µM (active)

COc1cccc(-c2cc(C(F)(F)F)nc(NCc3ccco3)n2)c1
EC50 [4]: > 50 µM (not active)

Cc1ccc2nc(-c3ccncc3)cc(C(=O)Nc3ccc(OC(F)F)cc3)c2c1
IC50 [5]: 4.12 µM (active)
IC50 [6]: 5.69 µM (active)

c1cc2c3c(cccc3c1)NC1(CCCCC1)N2
IC50 (Bcl-2-like protein 10): 60.5 µM (inactive)

CCC(C)C(NC(=O)c1ccccc1NC(=O)c1ccco1)C(=O)NC1CCCCC1 (configuration not stated)
EC50 [7]: > 100 µM (not active)

CC(C)C[C@@H](CC(=O)N[C@@H](CCCN)CC(=O)N[C@@H]1CCCC[C@H]1C(=O)N[C@H](CC(=O)N[C@@H](CCC(=O)O)CC(=O)O)CC(C)C)NC(=O)[C@@H]1CNCC[C@H]1N
AC50 (Cytochrome P450 2C9): 39.8 µM (inconclusive)
